According to patent US20240409585A1, “MACROCYCLIC IMMUNOMODULATORS” (priority 2021, published 2024):
Bridge positions count the residues as written; N and C are the ends. Square brackets hold non-standard residues; d marks the D form. Peptide text beside a SMILES is read from it. * marks the point of attachment. ξ: configuration not given here. Phe(3-CF3) = N[C@@H](Cc1cccc(C(F)(F)F)c1)C(=O)O; Ala(morpholin-4-yl) = N[C@@H](CN1CCOCC1)C(=O)O; Phe(4-COOH) = N[C@@H](Cc1ccc(C(=O)O)cc1)C(=O)O; Bip = N[C@@H](Cc1ccc(-c2ccccc2)cc1)C(=O)O; Phe(3-Me) = Cc1cccc(C[C@H](N)C(=O)O)c1; Val(3-OH) = CC(C)(O)[C@H](N)C(=O)O; Cha = N[C@@H](CC1CCCCC1)C(=O)O; Ile(3ξ) = CCC(C)[C@H](N)C(=O)O; Thr(3ξ) = CC(O)[C@H](N)C(=O)O; Pen = CC(C)(S)[C@H](N)C(=O)O; Carboxymethyl = O=C(O)C*; NMeA = CN[C@@H](C)C(=O)O; Orn = NCCC[C@H](N)C(=O)O; Dab = NCC[C@H](N)C(=O)O; NH(CH2)3NH2 = NCCCN*

Biological target: T1, PE-labeled human PD-L1-Ig binding to Jurkat cell line over-expressing human PD-1 (Jurkat-PD-1) (Homo sapiens, UniProt Q15116)
T1 construct: expressed in transfected cells; host or cells: Jurkat
T1 sequence (Q15116 25-288): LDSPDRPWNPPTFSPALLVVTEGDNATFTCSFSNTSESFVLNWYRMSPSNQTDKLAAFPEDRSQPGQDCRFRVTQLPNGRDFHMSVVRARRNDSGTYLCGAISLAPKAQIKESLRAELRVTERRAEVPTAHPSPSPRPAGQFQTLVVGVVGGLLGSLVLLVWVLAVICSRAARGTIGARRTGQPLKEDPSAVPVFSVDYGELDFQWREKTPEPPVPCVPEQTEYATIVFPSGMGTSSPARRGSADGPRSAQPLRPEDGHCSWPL
Assay: Jurkat-PD-1 Cell Binding High-Content Screening Assay (CBA): Method 1
Settings: Jurkat HPDL1 PD1 IC50 (Method 1), cells printed in nM

SMILES | IC50 [nM]
CC(C)C[C@H]1NC(=O)[C@H](C)N(C)C(=O)[C@H](Cc2ccc(C(=O)O)cc2)NC(=O)[C@H](Cc2ccc(-c3ccccc3)cc2)NC(=O)[C@H](Cc2ccc(C(=O)O)cc2)NC(=O)[C@H](Cc2cccc(C(F)(F)F)c2)NC(=O)[C@H](CC(=O)O)NC(=O)[C@H](Cc2ccc(C(=O)O)cc2)NC(=O)[C@H](CN2CCOCC2)NC(=O)CSC[C@@H](C(=O)N[C@@H](CCN)C(N)=O)NC(=O)[C@H](CCC(=O)O)NC(=O)[C@H](C(C)C)NC(=O)[C@H](CC2CCCCC2)NC(=O)[C@H](CCN)NC1=O [Example 2268] ({CH2CO}-[Ala(morpholin-4-yl)][Phe(4-COOH)]D[Phe(3-CF3)][Phe(4-COOH)][Bip][Phe(4-COOH)][NMeA][dL][Dab][Cha]VEC[Dab]-NH2; thioether N-14) | 1.3

Same assay, conditions: Jurkat-hPD-1 cells, PE-labeled PD-L1-Ig 20 nM final; read-out: Jurkat HPDL1 PD1 IC50 (uM) (Method 1)

SMILES | IC50 [nM]
CC(C)C[C@@H]1NC(=O)[C@H](Cc2c[nH]c3ccccc23)NC(=O)[C@H](CC(=O)O)NC(=O)[C@H](Cc2ccc(OCC(=O)O)cc2)NC(=O)[C@H](C(C)O)NC(=O)CSC[C@@H](C(N)=O)NC(=O)[C@H](CO)NC(=O)[C@H](C(C)C)NC(=O)[C@H](CC2CCCCC2)NC(=O)[C@H](Cc2cnc[nH]2)NC(=O)[C@@H](CC(C)C)NC(=O)[C@H](C)N(C)C(=O)[C@H](C(C)C)NC(=O)[C@H](Cc2ccc(-c3ccccc3)cc2)NC1=O (stereo partly drawn) [Compound 2253] ({CH2CO}-[Thr(3ξ)]Y(Carboxymethyl)DWL[Bip]V[NMeA][dL]H[Cha]VSC-NH2; thioether N-14) | 40
Cc1cccc(C[C@@H]2NC(=O)[C@H](CC(=O)O)NC(=O)[C@H](Cc3ccc(C(=O)O)cc3)NC(=O)[C@H](Cc3ccc(OCC(=O)O)cc3)NC(=O)CSC[C@@H](C(N)=O)NC(=O)[C@H](CCCCN)NC(=O)[C@H](C(C)C)NC(=O)[C@H](CC(C)C)NC(=O)[C@H](CC(N)=O)NC(=O)[C@@H](CC(C)C)NC(=O)[C@H](C)N(C)C(=O)[C@H](C(C)C)NC(=O)[C@H](Cc3ccc(-c4ccccc4)cc3)NC(=O)[C@H](CC(C)C)NC2=O)c1 [Compound 2257] ({CH2CO}-Y(Carboxymethyl)[Phe(4-COOH)]D[Phe(3-Me)]L[Bip]V[NMeA][dL]NLVKC-NH2; thioether N-14) | 60
CC(C)C[C@@H]1NC(=O)[C@H](Cc2c[nH]c3ccccc23)NC(=O)[C@H](CC(=O)O)NC(=O)[C@H](Cc2ccc(C(=O)O)cc2)NC(=O)[C@H](Cc2ccc(OCC(=O)O)cc2)NC(=O)CSC[C@@H](C(N)=O)NC(=O)[C@H](CCCCN)NC(=O)[C@H](C(C)C)NC(=O)[C@H](CC(C)C)NC(=O)[C@H](CC(N)=O)NC(=O)[C@@H](CC(C)C)NC(=O)[C@H](C)N(C)C(=O)[C@H](C(C)C)NC(=O)[C@H](Cc2ccc(-c3ccccc3)cc2)NC1=O [Compound 2258] ({CH2CO}-Y(Carboxymethyl)[Phe(4-COOH)]DWL[Bip]V[NMeA][dL]NLVKC-NH2; thioether N-14) | 160
Cc1cccc(C[C@@H]2NC(=O)[C@H](CC(=O)O)NC(=O)[C@H](Cc3ccc(OCC(=O)O)cc3)NC(=O)[C@H](C(C)O)NC(=O)CSC[C@@H](C(N)=O)NC(=O)[C@H](CCCCN)NC(=O)[C@H](C(C)C)NC(=O)[C@H](CC(C)C)NC(=O)[C@H](CC(N)=O)NC(=O)[C@@H](CC(C)C)NC(=O)[C@H](C)N(C)C(=O)[C@H](C(C)C)NC(=O)[C@H](Cc3ccc(-c4ccccc4)cc3)NC(=O)[C@H](CC(C)C)NC2=O)c1 (stereo partly drawn) [Compound 2259] ({CH2CO}-[Thr(3ξ)]Y(Carboxymethyl)D[Phe(3-Me)]L[Bip]V[NMeA][dL]NLVKC-NH2; thioether N-14) | 100
CC(C)C[C@@H]1NC(=O)[C@H](Cc2c[nH]c3ccccc23)NC(=O)[C@H](CC(=O)O)NC(=O)[C@H](Cc2ccc(OCC(=O)O)cc2)NC(=O)[C@H](Cc2ccc(OCC(=O)O)cc2)NC(=O)CSC(C)(C)[C@@H](C(N)=O)NC(=O)[C@H](CO)NC(=O)[C@H](C(C)C)NC(=O)[C@H](CC(C)C)NC(=O)[C@H](CCN)NC(=O)[C@@H](CC(C)C)NC(=O)[C@H](C)N(C)C(=O)[C@H](C(C)C)NC(=O)[C@H](Cc2ccc(-c3ccccc3)cc2)NC1=O [Compound 2260] ({CH2CO}-Y(Carboxymethyl)Y(Carboxymethyl)DWL[Bip]V[NMeA][dL][Dab]LVS[Pen]-NH2; thioether N-14) | 260
CCC(C)[C@@H]1NC(=O)[C@H](Cc2ccc(-c3ccccc3)cc2)NC(=O)[C@H](C(C)C)NC(=O)[C@H](Cc2c[nH]c3ccccc23)NC(=O)[C@H](CC(=O)O)NC(=O)[C@H](Cc2ccc(O)cc2)NC(=O)[C@H](C(C)O)NC(=O)CSC[C@@H](C(=O)NCCCN)NC(=O)[C@H](C(C)O)NC(=O)[C@H](C(C)(C)O)NC(=O)[C@H](CC2CCCCC2)NC(=O)[C@H](CC(N)=O)NC(=O)[C@@H](CC(C)C)NC(=O)[C@H](C)N(C)C1=O (stereo partly drawn) [Compound 2266] ({CH2CO}-[Thr(3ξ)]YDWV[Bip][Ile(3ξ)][NMeA][dL]N[Cha][Val(3-OH)][Thr(3ξ)]C-{NH(CH2)3NH2}; thioether N-14) | 150

The remaining lines, values ahead:

IC50 [nM] | SMILES
160 | CC(=O)NCCCC[C@@H]1NC(=O)[C@H](Cc2ccc(-c3ccccc3)cc2)NC(=O)[C@H](Cc2ccc(O)cc2)NC(=O)[C@H](Cc2c[nH]c3ccccc23)NC(=O)[C@H](CC(=O)O)NC(=O)[C@H](Cc2ccc(OCC(=O)O)cc2)NC(=O)[C@H](C(C)O)NC(=O)CSC[C@@H](C(N)=O)NC(=O)[C@H](C(C)O)NC(=O)[C@H](C(C)C)NC(=O)[C@H](CC2CCCCC2)NC(=O)[C@H](CCN)NC(=O)[C@@H](CC(C)C)NC(=O)[C@H](C)N(C)C1=O (stereo partly drawn) [Compound 2254] ({CH2CO}-[Thr(3ξ)]Y(Carboxymethyl)DWY[Bip]K(Ac)[NMeA][dL][Dab][Cha]V[Thr(3ξ)]C-NH2; thioether N-14)
60 | CC(=O)NCCCC[C@@H]1NC(=O)[C@H](Cc2ccc(-c3ccccc3)cc2)NC(=O)[C@H](Cc2ccc(O)cc2)NC(=O)[C@H](Cc2cccc(C)c2)NC(=O)[C@H](CC(=O)O)NC(=O)[C@H](Cc2ccc(OCC(=O)O)cc2)NC(=O)[C@H](C(C)O)NC(=O)CSC[C@@H](C(N)=O)NC(=O)[C@H](C(C)O)NC(=O)[C@H](C(C)C)NC(=O)[C@H](CC2CCCCC2)NC(=O)[C@H](CCN)NC(=O)[C@@H](CC(C)C)NC(=O)[C@H](C)N(C)C1=O (stereo partly drawn) [Compound 2255] ({CH2CO}-[Thr(3ξ)]Y(Carboxymethyl)D[Phe(3-Me)]Y[Bip]K(Ac)[NMeA][dL][Dab][Cha]V[Thr(3ξ)]C-NH2; thioether N-14)
10 | CC(=O)NCCCC[C@@H]1NC(=O)[C@H](C(C)C)NC(=O)[C@H](CC2CCCCC2)NC(=O)[C@H](CCN)NC(=O)[C@@H](CC(C)C)NC(=O)[C@H](C)N(C)C(=O)[C@H](Cc2cnc[nH]2)NC(=O)[C@H](Cc2ccc(-c3ccccc3)cc2)NC(=O)[C@H](C(C)C)NC(=O)[C@H](Cc2cccc(C)c2)NC(=O)[C@H](CC(=O)O)NC(=O)[C@H](Cc2ccc(OCC(=O)O)cc2)NC(=O)[C@H](Cc2ccc(OCC(=O)O)cc2)NC(=O)CSC[C@@H](C(N)=O)NC1=O [Compound 2262] ({CH2CO}-Y(Carboxymethyl)Y(Carboxymethyl)D[Phe(3-Me)]V[Bip]H[NMeA][dL][Dab][Cha]VK(Ac)C-NH2; thioether N-14)
10 | CC(=O)NCCCC[C@@H]1NC(=O)[C@H](C(C)C)NC(=O)[C@H](CC2CCCCC2)NC(=O)[C@H](CCN)NC(=O)[C@@H](CC(C)C)NC(=O)[C@H](C)N(C)C(=O)[C@H](CC(N)=O)NC(=O)[C@H](Cc2ccc(-c3ccccc3)cc2)NC(=O)[C@H](C(C)C)NC(=O)[C@H](Cc2cccc(C)c2)NC(=O)[C@H](CC(=O)O)NC(=O)[C@H](Cc2ccc(OCC(=O)O)cc2)NC(=O)[C@H](Cc2ccc(OCC(=O)O)cc2)NC(=O)CSC[C@@H](C(N)=O)NC1=O [Compound 2263] ({CH2CO}-Y(Carboxymethyl)Y(Carboxymethyl)D[Phe(3-Me)]V[Bip]N[NMeA][dL][Dab][Cha]VK(Ac)C-NH2; thioether N-14)
90 | Cc1cccc(C[C@@H]2NC(=O)[C@H](CC(=O)O)NC(=O)[C@H](Cc3ccc(OCC(=O)O)cc3)NC(=O)[C@H](C(C)O)NC(=O)CSC[C@@H](C(N)=O)NC(=O)[C@H](CO)NC(=O)[C@H](C(C)(C)O)NC(=O)[C@H](CC3CCCCC3)NC(=O)[C@H](CCN)NC(=O)[C@@H](CC(C)C)NC(=O)[C@H](C)N(C)C(=O)[C@H](Cc3ccc(OCC(=O)O)cc3)NC(=O)[C@H](Cc3ccc(-c4ccccc4)cc3)NC(=O)[C@H](Cc3ccc(C(=O)O)cc3)NC2=O)c1 (stereo partly drawn) [Compound 2264] ({CH2CO}-[Thr(3ξ)]Y(Carboxymethyl)D[Phe(3-Me)][Phe(4-COOH)][Bip]Y(Carboxymethyl)[NMeA][dL][Dab][Cha][Val(3-OH)]SC-NH2; thioether N-14)
20 | CC(=O)NCCCC[C@@H]1NC(=O)[C@H](C(C)C)NC(=O)[C@H](CC2CCCCC2)NC(=O)[C@H](CCN)NC(=O)[C@@H](CC(C)C)NC(=O)[C@H](C)N(C)C(=O)[C@H](CCC(N)=O)NC(=O)[C@H](Cc2ccc(-c3ccccc3)cc2)NC(=O)[C@H](C(C)C)NC(=O)[C@H](Cc2cccc(C)c2)NC(=O)[C@H](CC(=O)O)NC(=O)[C@H](Cc2ccc(OCC(=O)O)cc2)NC(=O)[C@H](Cc2ccc(OCC(=O)O)cc2)NC(=O)CSC[C@@H](C(=O)NCCCN)NC1=O [Compound 2265] ({CH2CO}-Y(Carboxymethyl)Y(Carboxymethyl)D[Phe(3-Me)]V[Bip]Q[NMeA][dL][Dab][Cha]VK(Ac)C-{NH(CH2)3NH2}; thioether N-14)
110 | CC(C)C[C@H]1NC(=O)[C@H](C)N(C)C(=O)[C@H](CCC(N)=O)NC(=O)[C@H](Cc2ccc(-c3ccccc3)cc2)NC(=O)[C@H](Cc2ccc(C(=O)O)cc2)NC(=O)[C@H](Cc2cccc(C(F)(F)F)c2)NC(=O)[C@H](CC(=O)O)NC(=O)[C@H](Cc2ccc(OCC(=O)O)cc2)NC(=O)[C@H](CN2CCOCC2)NC(=O)CSC[C@@H](C(=O)N[C@@H](CCN)C(N)=O)NC(=O)[C@H](CCCN)NC(=O)[C@H](C(C)C)NC(=O)[C@H](CC2CCCCC2)NC(=O)[C@H](CCN)NC1=O [Example 2272] ({CH2CO}-[Ala(morpholin-4-yl)]Y(Carboxymethyl)D[Phe(3-CF3)][Phe(4-COOH)][Bip]Q[NMeA][dL][Dab][Cha]V[Orn]C[Dab]-NH2; thioether N-14)
